In US9029386B2, “Pyridine derivatives useful as kinase inhibitors” (YM Biosciences Australia Pty Ltd, priority 2006, dated 2015):

Molecular target: T1, FLT-3 tyrosine kinase (Homo sapiens, UniProt P36888)
T1 construct: purchased Upstate Cell Signalling Solutions, CA, USA 14-500
T1 sequence (P36888 27-993): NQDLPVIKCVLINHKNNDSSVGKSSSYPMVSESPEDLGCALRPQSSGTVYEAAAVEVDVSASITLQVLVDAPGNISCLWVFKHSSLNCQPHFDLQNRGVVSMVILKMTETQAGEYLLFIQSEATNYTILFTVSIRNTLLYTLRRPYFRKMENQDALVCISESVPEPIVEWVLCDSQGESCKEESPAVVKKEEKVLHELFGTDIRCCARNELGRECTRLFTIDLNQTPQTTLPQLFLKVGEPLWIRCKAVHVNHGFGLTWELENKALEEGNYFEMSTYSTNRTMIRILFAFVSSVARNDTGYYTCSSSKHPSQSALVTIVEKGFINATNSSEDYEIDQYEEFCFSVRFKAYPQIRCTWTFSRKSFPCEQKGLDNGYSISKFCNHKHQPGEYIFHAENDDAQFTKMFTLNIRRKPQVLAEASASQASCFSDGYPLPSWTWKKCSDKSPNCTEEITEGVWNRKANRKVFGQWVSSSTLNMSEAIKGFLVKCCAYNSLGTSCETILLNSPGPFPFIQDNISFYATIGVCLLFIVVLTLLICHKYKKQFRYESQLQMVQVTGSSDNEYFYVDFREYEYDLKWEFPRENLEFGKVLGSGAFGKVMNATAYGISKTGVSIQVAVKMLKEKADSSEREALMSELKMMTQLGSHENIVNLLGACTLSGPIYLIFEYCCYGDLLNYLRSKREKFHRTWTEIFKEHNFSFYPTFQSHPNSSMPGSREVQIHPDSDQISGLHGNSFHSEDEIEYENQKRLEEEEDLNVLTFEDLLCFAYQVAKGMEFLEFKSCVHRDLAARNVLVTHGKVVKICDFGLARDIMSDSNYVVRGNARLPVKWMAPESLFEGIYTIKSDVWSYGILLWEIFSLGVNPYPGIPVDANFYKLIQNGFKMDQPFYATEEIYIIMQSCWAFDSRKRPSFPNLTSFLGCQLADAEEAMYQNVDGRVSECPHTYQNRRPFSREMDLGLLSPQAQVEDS
Test: Alphascreen protein tyrosine kinase assay, FLT-3
Assay type: biochemical
Conditions: read-out: Flt3

Cc1cccc(C(=O)Nc2cccc([C@H](C)Nc3cncc(-c4ccc(S(N)(=O)=O)cc4)n3)c2)c1 [Compound 77]
IC50: > 10 µM
